According to ChEMBL document CHEMBL1287670, “Discovery and synthesis of 6,7,8,9-tetrahydro-5H-pyrimido-[4,5-d]azepines as novel TRPV1 antagonists” (Bioorg Med Chem Lett, 2010):
Values after ≈ are worked out from the molar mass of the structure shown. One block for each compound: values may come before it. Active and inactive are the calls of the source. The calls are words filed in the database; no cut-off is given here.

Key:
[1] = molecular target: T1, Transient receptor potential cation channel subfamily V member 1 (Homo sapiens, UniProt Q8NER1); assay: Binding affinity to human recombinant TRPV1
T1 sequence (Q8NER1 whole entry): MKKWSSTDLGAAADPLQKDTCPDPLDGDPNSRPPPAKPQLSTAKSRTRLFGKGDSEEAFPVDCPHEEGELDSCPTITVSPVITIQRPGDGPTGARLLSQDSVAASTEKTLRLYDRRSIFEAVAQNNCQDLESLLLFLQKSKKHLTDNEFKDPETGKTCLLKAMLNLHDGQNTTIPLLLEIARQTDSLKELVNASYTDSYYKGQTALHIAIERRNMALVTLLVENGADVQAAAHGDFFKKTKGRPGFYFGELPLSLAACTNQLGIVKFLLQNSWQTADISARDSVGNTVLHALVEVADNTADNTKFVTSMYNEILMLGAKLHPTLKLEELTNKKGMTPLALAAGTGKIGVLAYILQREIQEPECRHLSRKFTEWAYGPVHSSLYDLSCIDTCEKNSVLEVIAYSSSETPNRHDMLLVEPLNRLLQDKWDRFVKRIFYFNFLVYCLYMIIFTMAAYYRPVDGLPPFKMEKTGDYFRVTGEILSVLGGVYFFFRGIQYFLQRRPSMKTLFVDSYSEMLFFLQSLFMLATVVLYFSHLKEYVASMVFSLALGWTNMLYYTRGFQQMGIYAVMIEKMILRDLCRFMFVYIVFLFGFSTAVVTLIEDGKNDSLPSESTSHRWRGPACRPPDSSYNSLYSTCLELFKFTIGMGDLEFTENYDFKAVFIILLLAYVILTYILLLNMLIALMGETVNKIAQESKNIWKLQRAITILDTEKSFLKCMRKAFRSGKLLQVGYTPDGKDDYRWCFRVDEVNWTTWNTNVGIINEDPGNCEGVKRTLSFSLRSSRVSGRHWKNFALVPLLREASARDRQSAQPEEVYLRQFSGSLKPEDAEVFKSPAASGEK

[2] = molecular target: Transient receptor potential cation channel subfamily V member 1 (Rattus norvegicus, UniProt O35433); assay: Binding affinity to rat TRPV1
Sequence of Transient receptor potential cation channel subfamily V member 1 (Rattus norvegicus, UniProt O35433) (O35433 whole entry): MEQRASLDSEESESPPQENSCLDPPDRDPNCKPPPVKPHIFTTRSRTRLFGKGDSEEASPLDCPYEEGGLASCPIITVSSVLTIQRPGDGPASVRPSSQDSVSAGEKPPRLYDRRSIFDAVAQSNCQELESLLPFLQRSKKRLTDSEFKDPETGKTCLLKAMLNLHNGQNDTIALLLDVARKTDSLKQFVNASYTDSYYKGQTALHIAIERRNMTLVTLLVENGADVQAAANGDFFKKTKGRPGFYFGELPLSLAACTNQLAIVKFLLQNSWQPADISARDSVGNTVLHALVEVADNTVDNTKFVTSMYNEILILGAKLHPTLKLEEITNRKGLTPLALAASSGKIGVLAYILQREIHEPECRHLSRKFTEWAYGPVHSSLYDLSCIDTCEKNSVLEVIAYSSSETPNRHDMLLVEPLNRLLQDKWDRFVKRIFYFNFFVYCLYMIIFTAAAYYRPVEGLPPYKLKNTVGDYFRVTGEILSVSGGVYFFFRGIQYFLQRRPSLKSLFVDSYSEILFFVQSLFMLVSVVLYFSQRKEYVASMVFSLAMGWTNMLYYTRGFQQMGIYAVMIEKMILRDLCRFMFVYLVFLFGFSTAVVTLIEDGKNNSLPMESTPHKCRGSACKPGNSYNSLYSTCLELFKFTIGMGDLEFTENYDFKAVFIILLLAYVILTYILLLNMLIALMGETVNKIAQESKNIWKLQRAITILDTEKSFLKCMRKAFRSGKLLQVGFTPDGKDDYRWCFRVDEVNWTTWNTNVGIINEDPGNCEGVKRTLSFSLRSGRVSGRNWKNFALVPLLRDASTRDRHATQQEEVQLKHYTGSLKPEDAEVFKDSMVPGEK

[3] = molecular target: T1, Transient receptor potential cation channel subfamily V member 1; assay: Antagonist activity at human recombinant TRPV1 assessed as inhibition of capsaicin-induced in intracellular calcium levels by cell-based FLIPR assay; assay type: functional
[4] = Aqueous equilibrium solubility of the compound in fasted-state simulated intestinal fluid at pH 6.8 by HPLC; assay type: physicochemical
[5] = Aqueous equilibrium solubility of the compound at pH 2 by HPLC; assay type: physicochemical; settings: aqueous medium
[6] = Bioavailability in fasted Sprague-Dawley rat at 1 mg/kg, iv or 5 mg/kg, po; assay type: ADME, organism-based; settings: in vivo
Rattus norvegicus = assay: Antihyperalgesic activity against carrageenan-induced thermal hyperalgesia in rat assessed as paw withdrawal latency at 30 mg/kg, po administered 1 hr before carrageenan challenge; assay type: functional, organism-based; design: dose 30 mg/kg
[7] = Half life in fasted Sprague-Dawley rat at 1 mg/kg, iv or 5 mg/kg, po; assay type: ADME, organism-based; settings: in vivo
[8] = AUC (infinity) in fasted Sprague-Dawley rat at 1 mg/kg, iv; assay type: ADME, organism-based; design: time infinity, dose 1 mg/kg, route intravenous; settings: plasma
[9] = Clearance in fasted Sprague-Dawley rat at 1 mg/kg, iv or 5 mg/kg, po; assay type: ADME, organism-based; settings: in vivo
[10] = AUC (infinity) in fasted Sprague-Dawley rat at 5 mg/kg, po; assay type: ADME, organism-based; design: time infinity, dose 5 mg/kg, route oral; settings: plasma
[11] = Cmax in fasted Sprague-Dawley rat at 1 mg/kg, iv or 5 mg/kg, po; assay type: ADME, organism-based; settings: in vivo
[12] = Volume of distribution at steady state in fasted Sprague-Dawley rat at 1 mg/kg, iv or 5 mg/kg, po; assay type: ADME, organism-based; settings: in vivo, read-out: Vdss

SMILES: C=C(C)C12C[C@@H](C)[C@@]34O[C@](Cc5ccccc5)(O[C@@H]1[C@@H]3C=C(COC(=O)Cc1ccc(O)c(OC)c1)C[C@]1(O)C(=O)C(C)=C[C@@H]41)O2 (single isomer, unassigned) [RESINIFERATOXIN]
Ki [1]: 14 nM
IC50 [2]: 180 nM

SMILES: CC(C)(C)c1ccc(Nc2ncnc3c2CN(c2ncccc2C(F)(F)F)CC3)cc1
IC50 [3]: > 10000 nM

SMILES: CC(C)(C)c1ccccc1Nc1ncnc2c1CCN(c1ncccc1C(F)(F)F)C2
IC50 [3]: > 20000 nM

SMILES: FC(F)(F)c1ccc(Nc2nc(N3CCOCC3)nc3c2CCN(c2ncccc2C(F)(F)F)CC3)cc1
solubility thermodynamic [5]: 5 µg/mL (≈ 9.29 µM)
bioavailability [6]: 14%
Activity (Rattus norvegicus): Active
solubility thermodynamic [4]: 0.5 µg/mL (≈ 0.929 µM)
half-life [7]: 1.1 h
AUC(0-inf) [8]: 322 ng·h/mL
clearance [9]: 51.7 mL/min/kg
AUC(0-inf) [10]: 236 ng·h/mL
Cmax [11]: 160 nM
Vd [12]: 4.7 L/kg

SMILES: COc1nc(Nc2nc(C(C)C)nc3c2CCN(c2ncccc2C(F)(F)F)CC3)ccc1C(F)(F)F
IC50 [3]: 2460 nM

Other lines, results leading:

IC50 [3]: 80 nM
SMILES: Cc1nc2c(c(Nc3ccc(C(C)(C)C)cc3)n1)CCN(c1ncccc1C(F)(F)F)C2

IC50 [3]: 520 nM
SMILES: CC(C)(C)c1cccc(Nc2ncnc3c2CCN(c2ncccc2C(F)(F)F)C3)c1

solubility thermodynamic [4]: 218 µg/mL (≈ 399 µM)
IC50 [3]: 462 nM
SMILES: O=C(O)c1cnc(N2CCc3nc(N4CCCCC4)nc(Nc4ccc(C(F)(F)F)cc4)c3CC2)c(Cl)c1

IC50 [3]: 18 nM
SMILES: CC(C)c1nc2c(c(Nc3ccc(C(C)(C)C)cc3)n1)CCN(c1ncccc1C(F)(F)F)C2

IC50 [3]: 176 nM
SMILES: COC(=O)c1cnc(N2CCc3nc(N4CCOCC4)nc(Nc4ccc(C(F)(F)F)cc4)c3CC2)c(Cl)c1

IC50 [3]: 1450 nM
SMILES: FC(F)(F)c1cccc(Nc2ncnc3c2CCN(c2ncccc2C(F)(F)F)C3)c1

IC50 [3]: 2040 nM
SMILES: CC(C)(C)c1ccc(Nc2ncnc3c2CCCN(c2ncccc2C(F)(F)F)C3)cc1

IC50 [3]: 9 nM
SMILES: CC(C)(C)c1ccc(Nc2ncnc3c2CCN(c2ncccc2C(F)(F)F)C3)cc1
